Results on 29 compounds are retold here after patent publication US20090163476A1, “N-Phenyl Benzamide Derivatives as Sirtuin Modulators” (Sirtris Pharmaceuticals, Inc., priority 2005, published 2009).

Test [1] deals with T1, SIRT1 (Homo sapiens, UniProt Q96EB6).
T1 sequence (Q96EB6 1-747): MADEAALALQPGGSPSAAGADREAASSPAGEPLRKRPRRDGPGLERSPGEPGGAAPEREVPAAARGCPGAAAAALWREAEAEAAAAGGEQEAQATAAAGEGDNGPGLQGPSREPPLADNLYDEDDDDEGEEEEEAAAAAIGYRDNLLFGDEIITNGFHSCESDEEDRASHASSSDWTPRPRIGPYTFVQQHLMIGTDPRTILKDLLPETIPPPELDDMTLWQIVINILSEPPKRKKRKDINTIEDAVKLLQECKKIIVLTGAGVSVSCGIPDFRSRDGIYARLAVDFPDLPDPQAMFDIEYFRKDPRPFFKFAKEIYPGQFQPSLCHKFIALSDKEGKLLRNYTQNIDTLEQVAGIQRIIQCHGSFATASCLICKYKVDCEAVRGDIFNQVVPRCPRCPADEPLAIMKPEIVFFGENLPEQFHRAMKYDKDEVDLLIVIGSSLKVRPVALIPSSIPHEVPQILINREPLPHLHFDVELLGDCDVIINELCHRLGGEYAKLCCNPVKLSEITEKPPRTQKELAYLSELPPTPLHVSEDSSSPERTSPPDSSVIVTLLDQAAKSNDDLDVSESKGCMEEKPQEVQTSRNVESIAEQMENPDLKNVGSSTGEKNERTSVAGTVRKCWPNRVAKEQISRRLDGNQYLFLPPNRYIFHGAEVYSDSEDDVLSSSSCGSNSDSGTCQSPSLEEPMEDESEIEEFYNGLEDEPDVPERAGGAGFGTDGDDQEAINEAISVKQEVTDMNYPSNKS
Put plainly: Mass spectrometry based assay of SIRT1 activity. It counts as biochemical. Set-up: key to FOLD ACTIVATION MS: A: Fold activation >250%; B: Fold Activation <250%; C: no fold activation. The note with it: for EC50: activation of SIRT1, read-out: ED50 MS. Here is the method:
The mass spectrometry based assay utilizes a peptide having 20 amino acid residues as follows: […] The sequence of the peptide substrate is based on p53 with several modifications. […] Test compounds may be added to the reaction as described above. […] After the 25 minute incubation with SIRT1, 10 μL of 10% formic acid is added to stop the reaction. Reactions are sealed and frozen for later mass spec analysis. Determination of the mass of the substrate peptide allows for precise determination of the degree of acetylation (i.e. starting material) as compared to deacetylated peptide (product). […] This timepoint is the same as that used for test compounds and, within the linear range, the endpoint represents a change in velocity. For each of the above assays, SIRT1 protein was expressed and purified as follows. The SirT1 gene was cloned into a T7-promoter containing vector and transformed into BL21(DE3). The protein was expressed by induction with 1 mM IPTG as an N-terminal His-tag fusion protein at 18° C. overnight and harvested at 30,000×g. […] The protein was purified over a Ni-NTA column (Amersham) and fractions containing pure protein were pooled, concentrated and run over a sizing column (Sephadex S200 26/60 global). The peak containing soluble protein was collected and run on an Ion-exchange column (MonoQ). […] This protein was concentrated and dialyzed against dialysis buffer (20 mM Tris-HCl, 2 mM TCEP) overnight. The protein was aliquoted and frozen at −80° C. until further use.

Test [2] concerns the target T1, SIRT1. Description: Fluorescence polarization assay of SIRT1 activity (p53-based peptide substrate). Format: biochemical. Particulars: activation of SIRT1; peptide 1 for Compounds 1-18, peptide 2 for Compounds 19-164; read-out: ED50 FP. The procedure:
A fluorescence polarization or mass spectrometry based assay was used to identify modulators of SIRT1 activity. The same assay may be used to identify modulators of any sirtuin protein. The fluorescence polarization assays utilizes one of two different peptides based on a fragment of p53, a known sirtuin deacetylation target. Compounds 1-18 were tested using a substrate containing peptide 1 having 20 amino acid residues as follows: Ac-EE-K(biotin)-[…](Ac)NleSTEG-K(M121)-EE-NH2 (SEQ ID NO: 1) wherein K(biotin) is a biotinolated lysine residue, K(Ac) is an acetylated lysine residue, Nle is norleucine and K(MR121) is a lysine residue modified by an MR121 fluorophore. This peptide is labeled with the fluorophore MR121 (excitation 635 nm/emission 680 nm) at the C-termini and biotin at the N-termini. The sequence of the peptide substrates are based on p53 with several modifications. In particular, all arginine and […] residues other than the acetylated lysine residues have replaced with serine so that the peptides are not susceptible to trypsin cleavage in the absence of deacetylation. In addition, the methionine residues naturally present in the sequences have been replaced with the norleucine because the methionine may be susceptible to oxidation during synthesis and purification. […] The peptide is labeled with the fluorophore 5TMR (excitation 540 nm/emission 580 nm) at the C-terminus. The sequence of the peptide substrate is also based on p53 with several modifications. In addition, the methionine residue naturally present in the sequence was replaced with the norleucine because the methionine may be susceptible to oxidation during synthesis and purification.
The peptide substrates were exposed to a sirtuin protein in the presence of NAD^+ to allow deacetylation of the substrate and render it sensitive to cleavage by trypsin. Trypsin was then added and the reaction was carried to completion (i.e., the deacetylated substrate is cleaved) releasing the MR121 or 5TMR fragment. Streptavidin is then added to the reaction where it can bind both the uncleaved substrate (i.e., any remaining acetylated substrate) and the non-fluorescent portion of the cleaved peptide substrate (i.e., the biotin containing fragment). The fluorescence polarization signal observed for the full length peptide substrates bound to streptavidin was higher than the fluorescence polarization signal observed for the released MR121 or 5TMR C-terminal fragment. In this way, the fluorescence polarization obtained is inversely proportional to the level of deacetylation (e.g., the signal is inversely proportional to the activity of the sirtuin protein). Results were read on a microplate fluorescence polarization reader (Molecular Devices Spectramax MD) with appropriate excitation and emission filters.
The fluorescence polarization assays using peptide 1 is conducted as follows: 0.5 μM peptide substrate and 150 μM βNAD^+ is incubated with 0.1 μg/mL of SIRT1 for 60 minutes at 37° C. in a reaction buffer (25 mM Tris-acetate pH8, 137 mM Na—Ac, 2.7 mM K—Ac, 1 mM Mg—Ac, 0.05% Tween-20, 0.1% Pluronic F127, 10 mM CaCl2, 5 mM DTT, 0.025% BSA, 0.15 mM Nicotinamide). Test compounds 1-18 were solubilized in DMSO and added to the reaction at 11 concentrations ranging from 0.7 μM to 100 μM.
Fluorescence polarization assays using peptide 2 is conducted as follows: 0.5 μM peptide substrate and 120 μM βNAD^+ were incubated with 3 nM SIRT1 for 20 minutes at 25° C. in a reaction buffer (25 mM Tris-acetate pH8, 137 mM Na—Ac, 2.7 mM K—Ac, 1 mM Mg—Ac, 0.05% Tween-20, 0.1% Pluronic F127, 10 mM CaCl2, 5 mM DTT, 0.025% BSA). Test compounds 19-56 were solubilized in DMSO and added to the reaction at 10 concentrations ranging from 300 μM to 0.15 μM in three-fold dilutions.
After the incubation with SIRT1, nicotinamide was added to the reaction to a final concentration of 3 mM to stop the deacetylation reaction and 0.5 μg/mL of trypsin was added to cleave the deacetylated substrate. […]

Where only a bound is given, the exact number is not on record here.

For `CN(C)c1cccc(C(=O)Nc2cccc(-c3nc4ncccc4o3)c2)c1` [Compound 42], on SIRT1 [1], the “FOLD ACTIVATION MS” value is recorded as “B (Fold Activation <250%)” and the EC50 is less than 50 µM. Further, on SIRT1 [2], the EC50 is less than 50 µM.
Take `O=C(Nc1cc(NC(=O)c2ccccc2)c(C(=O)O)cc1C(=O)O)c1ccccc1` [Compound 2]: the EC50 on SIRT1 [2] was greater than 150 µM.
For `COc1cc(OC)c(C(=O)Nc2cccc(-c3nc4ncccc4o3)c2)c(OC)c1` [Compound 48], at SIRT1 [1], the “FOLD ACTIVATION MS” value is given as “C” and the EC50 is greater than 150 µM. Besides, the EC50 at SIRT1 [2] was greater than 150 µM.
As to `CC(=O)Oc1cc(C(=O)Nc2ccccc2C(=O)O)cc(C(=O)Nc2ccccc2C(=O)O)c1` [Compound 1], the EC50 at SIRT1 [2] is less than 50 µM.
The same measure, in the same setting: under `O=C(Nc1ccccc1C(=O)O)c1cccc(C(=O)Nc2ccccc2C(=O)O)c1` [Compound 3] stands 51 to 100 µM.
In the case of `COc1ccc(C(=O)Nc2cccc(-c3nc4ncccc4o3)c2)c(OC)c1OC` [Compound 53], on SIRT1 [1], the “FOLD ACTIVATION MS” value is reported as “C” and the EC50 is greater than 150 µM. The EC50 on SIRT1 [2] was greater than 150 µM.
Consider `CCOc1cccc(C(=O)Nc2cc(OC)c(OC)cc2C(=O)O)c1` [Compound 8], for which, at SIRT1 [2], the EC50 was 51 to 100 µM.
Consider `COc1cccc(OC)c1C(=O)Nc1cccc(-c2nc3ncccc3o2)c1` [Compound 46], for which, on SIRT1 [1], the “FOLD ACTIVATION MS” value is given as “C” and the EC50 is greater than 150 µM. The EC50 at SIRT1 [2] was greater than 150 µM.
As to `COc1ccccc1C(=O)Nc1cccc(NC(=O)c2ccco2)c1` [Compound 6], the EC50 on SIRT1 [2] was greater than 150 µM.
The same measure, in the same setting: with `COc1ccccc1C(=O)Nc1cccc(-c2nc3ncccc3o2)c1` [Compound 7] the figure was less than 50 µM.
Still for that read-out and setting: under `COc1cc(NC(=O)c2cccc(Br)c2)c(C(=O)O)cc1OC` [Compound 5] stands 51 to 100 µM.
In the case of `CN(C)c1ccc(C(=O)Nc2cccc(-c3nc4ncccc4o3)c2)cc1` [Compound 43], on SIRT1 [1], the “FOLD ACTIVATION MS” value was “B (Fold Activation <250%)” and the EC50 is less than 50 µM. For the same compound, on SIRT1 [2], the EC50 is less than 50 µM.
With `COc1ccc(C(=O)Nc2cccc(-c3nc4ncccc4o3)c2)c(OC)c1` [Compound 55], at SIRT1 [1], the “FOLD ACTIVATION MS” value is “B (Fold Activation <250%)” and the EC50 was less than 50 µM. Besides, the EC50 on SIRT1 [2] is less than 50 µM.
Turning to `COc1cc(C)ccc1C(=O)Nc1cccc(-c2nc3ncccc3o2)c1` [Compound 51], on SIRT1 [1], the “FOLD ACTIVATION MS” value is “B (Fold Activation <250%)” and the EC50 is less than 50 µM. The EC50 on SIRT1 [2] is less than 50 µM.
As to `COc1cc(C(=O)Nc2cc(Cl)ccc2C(=O)O)ccc1OC(C)=O` [Compound 10], the EC50 at SIRT1 [2] was greater than 150 µM.
`COc1cccc(C(=O)Nc2cccc(-c3nc4ncccc4o3)c2)c1C` [Compound 49]: at SIRT1 [1], the “FOLD ACTIVATION MS” value is listed as “B (Fold Activation <250%)” and the EC50 is less than 50 µM. At SIRT1 [2], the EC50 was greater than 150 µM.
`O=C(Nc1cccc(-c2nc3ncccc3o2)c1)c1ccc(N2CCOCC2)cc1` [Compound 38]: on SIRT1 [1], the “FOLD ACTIVATION MS” value was “C” and the EC50 is greater than 150 µM. Moreover, the EC50 at SIRT1 [2] is greater than 150 µM.
Regarding `COc1cc(C(=O)Nc2cccc(-c3cn4ccsc4n3)c2)cc(OC)c1OC` [Compound 118], on SIRT1 [1], the “FOLD ACTIVATION MS” value was “A (Fold activation >250%)” and the EC50 was less than 50 µM.
As to `COc1cc(C(=O)Nc2cccc(-c3nc4ccc(C)cc4o3)c2)cc(OC)c1OC` [Compound 127], at SIRT1 [1], the “FOLD ACTIVATION MS” value is recorded as “A (Fold activation >250%)” and the EC50 was less than 50 µM.
In the case of `O=C(Nc1cccc(-c2nc3ncccc3o2)c1)c1cccc(OC(F)(F)F)c1` [Compound 50], the EC50 at SIRT1 [1] was greater than 150 µM.
`COc1cc(C(=O)Nc2cc(CO)cc(-c3nc4ccncc4s3)c2)cc(OC)c1OC` [Compound 135]: on SIRT1 [1], the “FOLD ACTIVATION MS” value is reported as “B (Fold Activation <250%)” and the EC50 is less than 50 µM.
`COc1ccc(C(=O)Nc2cc(C(=O)O)cc(-c3nc4ncccc4o3)c2)cc1OC` [Compound 137]: the EC50 at SIRT1 [1] was greater than 150 µM.
For `COc1cc(C(=O)Nc2cccc(-c3nc4ccncc4s3)c2)cc(OC)c1OC` [Compound 115], at SIRT1 [1], the “FOLD ACTIVATION MS” value was “A (Fold activation >250%)” and the EC50 was less than 50 µM.
Taken in the same sequence, the figures for `CN(C)c1cccc(C(=O)Nc2cccc(-c3nc4cccnc4o3)c2)c1` [Compound 111] were “B (Fold Activation <250%)” and less than 50 µM.
For `CC1COCC(C)N1c1ccc(C(=O)NCc2cccc(CN)c2)cc1NC(=O)c1ccc2ccccc2c1` (centres unmarked) [Compound 9], the EC50 at SIRT1 [2] lay in the range of 101 to 150 µM.
Consider `COc1cccc(OC)c1C(=O)Nc1cccc(-c2nc3ccccc3[nH]2)c1` [Compound 126], for which, on SIRT1 [1], the “FOLD ACTIVATION MS” value was “B (Fold Activation <250%)” and the EC50 was less than 50 µM.
For `COc1ccc(C(=O)Nc2cccc(-c3nc4ccccc4s3)c2)c(OC)c1` [Compound 124] the same measures were “B (Fold Activation <250%)” and less than 50 µM.
Take `O=C(Nc1cccc(-c2nc3ncccc3o2)c1)c1ccccc1N1CCOCC1` [Compound 109]: at SIRT1 [1], the “FOLD ACTIVATION MS” value was “B (Fold Activation <250%)” and the EC50 was less than 50 µM.
With `COc1cc(C(=O)Nc2cccc(-c3cn4cccc(C)c4n3)c2)cc(OC)c1OC` [Compound 131], on SIRT1 [1], the “FOLD ACTIVATION MS” value is on record as “A (Fold activation >250%)” and the EC50 is less than 50 µM.
